Measurements from EP4512427A1, “ANTIBODY-DRUG CONJUGATES BASED ON MOLECULAR GLUE DEGRADERS AND USES THEREOF” (Mablink Bioscience, priority 2023, dated 2025).

Legend:
CDK13/CycK = biological target: T1, CDK13/CycK (Homo sapiens, UniProt Q14004); test: IC50 profiling on top 25 protein kinases; assay type: biochemical; conditions: titration from 0.1 nM to 10 000 nM
T1 construct: GST-fusion or His-tag (not given for this kinase); purchased Reaction Biology, Germany; host or cells: Sf9 insect cells or E.coli
T1 sequence (Q14004 whole entry, the tested form may be a part): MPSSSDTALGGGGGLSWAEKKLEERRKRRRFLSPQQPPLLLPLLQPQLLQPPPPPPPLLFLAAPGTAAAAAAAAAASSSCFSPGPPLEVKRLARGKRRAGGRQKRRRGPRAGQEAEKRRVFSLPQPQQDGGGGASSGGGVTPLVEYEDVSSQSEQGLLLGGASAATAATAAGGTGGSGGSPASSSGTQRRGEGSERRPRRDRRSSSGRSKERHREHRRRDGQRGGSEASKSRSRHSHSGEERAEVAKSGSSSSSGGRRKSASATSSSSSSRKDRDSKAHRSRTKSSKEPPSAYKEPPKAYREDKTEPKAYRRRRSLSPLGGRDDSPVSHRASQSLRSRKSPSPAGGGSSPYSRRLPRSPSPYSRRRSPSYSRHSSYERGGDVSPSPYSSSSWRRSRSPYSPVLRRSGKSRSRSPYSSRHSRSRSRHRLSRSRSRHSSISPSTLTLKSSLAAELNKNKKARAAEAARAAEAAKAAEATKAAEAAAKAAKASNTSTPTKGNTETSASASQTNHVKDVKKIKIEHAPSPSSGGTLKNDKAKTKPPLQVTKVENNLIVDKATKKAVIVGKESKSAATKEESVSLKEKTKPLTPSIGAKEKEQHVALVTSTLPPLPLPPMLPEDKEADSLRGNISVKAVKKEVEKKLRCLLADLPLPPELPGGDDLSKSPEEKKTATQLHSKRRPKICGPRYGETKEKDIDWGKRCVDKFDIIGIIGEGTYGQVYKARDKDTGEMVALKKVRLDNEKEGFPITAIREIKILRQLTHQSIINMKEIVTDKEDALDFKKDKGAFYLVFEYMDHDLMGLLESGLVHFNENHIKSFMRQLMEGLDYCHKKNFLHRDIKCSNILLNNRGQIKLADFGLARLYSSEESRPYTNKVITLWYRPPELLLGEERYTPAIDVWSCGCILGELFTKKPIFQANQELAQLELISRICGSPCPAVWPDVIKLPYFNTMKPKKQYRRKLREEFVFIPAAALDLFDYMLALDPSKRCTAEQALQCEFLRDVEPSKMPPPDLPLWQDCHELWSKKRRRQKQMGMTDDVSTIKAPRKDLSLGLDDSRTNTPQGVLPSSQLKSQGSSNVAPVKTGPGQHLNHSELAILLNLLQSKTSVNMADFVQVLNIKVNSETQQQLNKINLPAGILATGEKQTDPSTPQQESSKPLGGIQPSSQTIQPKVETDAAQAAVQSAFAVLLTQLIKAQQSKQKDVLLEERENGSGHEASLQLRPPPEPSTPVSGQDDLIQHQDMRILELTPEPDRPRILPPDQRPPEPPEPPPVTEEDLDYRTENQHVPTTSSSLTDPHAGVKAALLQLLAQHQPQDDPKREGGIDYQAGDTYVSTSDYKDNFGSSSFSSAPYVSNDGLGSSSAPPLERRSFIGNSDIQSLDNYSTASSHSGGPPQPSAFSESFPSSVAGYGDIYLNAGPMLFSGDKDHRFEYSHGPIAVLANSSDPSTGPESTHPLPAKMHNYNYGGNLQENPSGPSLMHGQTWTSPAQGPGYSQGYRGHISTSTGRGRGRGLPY
T1 sequence (O75909 whole entry partner, the tested form may be a part): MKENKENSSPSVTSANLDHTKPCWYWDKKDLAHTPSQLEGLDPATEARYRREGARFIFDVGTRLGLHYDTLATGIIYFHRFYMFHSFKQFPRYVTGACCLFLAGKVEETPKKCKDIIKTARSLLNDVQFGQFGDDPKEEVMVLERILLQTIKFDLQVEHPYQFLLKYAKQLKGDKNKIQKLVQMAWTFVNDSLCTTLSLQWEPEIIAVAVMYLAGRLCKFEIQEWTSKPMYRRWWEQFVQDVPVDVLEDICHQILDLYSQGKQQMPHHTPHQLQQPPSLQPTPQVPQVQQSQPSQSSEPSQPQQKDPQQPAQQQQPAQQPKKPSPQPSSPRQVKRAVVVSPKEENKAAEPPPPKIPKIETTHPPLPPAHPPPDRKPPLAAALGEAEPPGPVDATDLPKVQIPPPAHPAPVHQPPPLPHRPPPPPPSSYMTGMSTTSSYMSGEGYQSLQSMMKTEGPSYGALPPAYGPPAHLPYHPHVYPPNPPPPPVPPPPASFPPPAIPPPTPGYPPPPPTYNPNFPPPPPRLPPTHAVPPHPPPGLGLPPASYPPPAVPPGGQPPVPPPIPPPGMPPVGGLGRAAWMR
Protocol: (§1) Compound 2384 according to the disclosure was subjected to kinase screening assays (performed at Reaction Biology, Germany). […] A radiometric protein kinase assay (33PanQinase® ActivityAssay) was used for measuring the kinase activity of 340 protein kinases. All kinase assays were performed in 96-well FlashPlates™ from Perkin Elmer (Boston, MA, USA) in a 50 µL reaction volume. […] All PKC assays (except the PKC-mu and the PKC-nu assay) additionally contained 1 mM CaCl2, 4 mM EDTA, 5 µg/m! Phosphatidylserine and 1 µg/m! 1,2-Dioleyl-glycerol. The CAMK1D, CAMK2A, CAMK2B, CAMK2D, CAMK2G, CAMK4, CAMKK1, CAMKK2, DAPK2, EEF2K, MYLK, MYLK2 and MYLK3 assays additionally contained 1 µg/ml Calmodulin and 0.5 mM CaCl2. The PRKG1 and PRKG2 assays additionally contained 1 µM cGMP. The DNA-PK assay additionally contained 2.5 µg/ml DNA. The protein kinase reaction cocktails were incubated at 30°C for 60 minutes. The reaction was stopped with 50 µl of 2 % (v/v) H3PO4, plates were aspirated and washed two times with 200 µL 0.9 % (w/v) NaCl. Incorporation of 33Pi (counting of "cpm") was determined with a microplate scintillation counter (Microbeta, Wallac). All protein kinase assays were performed with a BeckmanCoulter Biomek 2000/SL robotic system. All protein kinases provided by RBE were expressed in Sf9 insect cells or in E.coli as recombinant GST-fusion proteins or His-tagged proteins, either as full-length or enzymatically active fragments. All kinases were produced from human cDNAs and purified by either GSH-affinity chromatography or immobilized metal. Affinity tags were removed from a number of kinases during purification. The purity of the protein kinases was examined by SDS-PAGE/Coomassie staining, the identity was checked by mass spectroscopy. Kinases from external vendors were expressed, purified and quality-controlled. Staurosporine was used as positive control.
(§2) Staurosporine was used as positive control.

CDK9/CycK = biological target: T2, CDK9/CycK (Homo sapiens, UniProt P50750); test: IC50 profiling on top 25 protein kinases; assay type: biochemical; conditions: titration from 0.1 nM to 10 000 nM
T2 construct: GST-fusion or His-tag (not given for this kinase); purchased Reaction Biology, Germany; host or cells: Sf9 insect cells or E.coli
T2 sequence (P50750 whole entry, the tested form may be a part): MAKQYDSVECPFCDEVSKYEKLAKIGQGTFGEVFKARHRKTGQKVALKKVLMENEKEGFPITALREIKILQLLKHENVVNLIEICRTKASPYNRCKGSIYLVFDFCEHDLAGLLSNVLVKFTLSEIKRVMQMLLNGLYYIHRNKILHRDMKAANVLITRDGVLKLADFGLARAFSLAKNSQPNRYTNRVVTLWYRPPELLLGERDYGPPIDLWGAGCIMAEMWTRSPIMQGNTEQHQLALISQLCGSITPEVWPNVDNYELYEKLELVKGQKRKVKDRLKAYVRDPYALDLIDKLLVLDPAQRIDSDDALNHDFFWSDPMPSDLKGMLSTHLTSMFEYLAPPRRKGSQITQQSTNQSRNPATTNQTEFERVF
T2 sequence (O75909 whole entry partner, the tested form may be a part): as the sequence (O75909 whole entry partner, the tested form may be a part) above
Protocol: as §1, §2

CDK12/CycK = biological target: T3, CDK12/CycK (Homo sapiens, UniProt Q9NYV4); test: IC50 profiling on top 25 protein kinases; assay type: biochemical; conditions: titration from 0.1 nM to 10 000 nM
T3 construct: GST-fusion or His-tag (not given for this kinase); purchased Reaction Biology, Germany; host or cells: Sf9 insect cells or E.coli
T3 sequence (Q9NYV4 whole entry, the tested form may be a part): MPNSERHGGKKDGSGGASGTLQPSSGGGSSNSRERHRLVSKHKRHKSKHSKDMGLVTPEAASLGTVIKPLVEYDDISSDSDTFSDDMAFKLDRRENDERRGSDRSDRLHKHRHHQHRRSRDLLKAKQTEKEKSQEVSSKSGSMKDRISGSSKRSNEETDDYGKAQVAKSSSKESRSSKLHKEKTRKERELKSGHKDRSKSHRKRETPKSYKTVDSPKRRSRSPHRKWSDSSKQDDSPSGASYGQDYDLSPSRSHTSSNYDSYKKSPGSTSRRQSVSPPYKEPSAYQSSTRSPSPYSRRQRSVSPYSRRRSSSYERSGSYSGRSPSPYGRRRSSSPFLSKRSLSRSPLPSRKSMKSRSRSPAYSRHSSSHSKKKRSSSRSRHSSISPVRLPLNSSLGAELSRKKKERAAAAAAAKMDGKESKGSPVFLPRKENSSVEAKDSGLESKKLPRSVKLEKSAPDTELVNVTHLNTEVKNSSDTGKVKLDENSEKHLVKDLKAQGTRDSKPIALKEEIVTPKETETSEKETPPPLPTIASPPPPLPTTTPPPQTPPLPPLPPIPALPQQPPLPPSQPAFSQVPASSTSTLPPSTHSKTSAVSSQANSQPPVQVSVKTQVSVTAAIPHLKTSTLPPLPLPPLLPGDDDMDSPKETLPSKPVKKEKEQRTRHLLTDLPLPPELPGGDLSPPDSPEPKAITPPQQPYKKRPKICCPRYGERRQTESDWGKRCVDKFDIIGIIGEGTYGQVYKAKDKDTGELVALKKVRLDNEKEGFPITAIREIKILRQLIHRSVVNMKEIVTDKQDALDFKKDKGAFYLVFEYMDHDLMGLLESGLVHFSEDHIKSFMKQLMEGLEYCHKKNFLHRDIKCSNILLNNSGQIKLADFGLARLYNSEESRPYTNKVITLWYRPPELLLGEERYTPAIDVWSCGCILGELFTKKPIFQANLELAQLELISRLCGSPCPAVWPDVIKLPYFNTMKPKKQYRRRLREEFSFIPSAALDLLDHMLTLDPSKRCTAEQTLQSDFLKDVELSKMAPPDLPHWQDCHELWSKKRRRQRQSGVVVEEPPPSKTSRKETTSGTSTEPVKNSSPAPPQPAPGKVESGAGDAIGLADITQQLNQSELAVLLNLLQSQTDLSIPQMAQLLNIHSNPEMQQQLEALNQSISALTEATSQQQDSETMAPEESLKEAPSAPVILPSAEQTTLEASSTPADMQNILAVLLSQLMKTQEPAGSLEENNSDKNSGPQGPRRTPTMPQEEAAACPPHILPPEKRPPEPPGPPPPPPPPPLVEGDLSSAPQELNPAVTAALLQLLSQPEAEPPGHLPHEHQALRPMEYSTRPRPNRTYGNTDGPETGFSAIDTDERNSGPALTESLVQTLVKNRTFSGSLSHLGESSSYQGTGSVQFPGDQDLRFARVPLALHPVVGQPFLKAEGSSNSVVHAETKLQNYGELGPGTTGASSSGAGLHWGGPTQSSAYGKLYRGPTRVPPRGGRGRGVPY
T3 sequence (O75909 whole entry partner, the tested form may be a part): as the sequence (O75909 whole entry partner, the tested form may be a part) above
Protocol: as §1, §2

in vitro = conditions: PAMPA, pH 7.4
Protocol: Stock solutions of compounds of the invention were prepared in dimethyl sulfoxide (DMSO) to a final concentration of 10 mM. Each stock solution was diluted to 50 µM in pH 7.4 Prisma HT buffer (pION) in the presence of 10% MeOH (v/v). 200 µL were added to each well of the donor plate in quintuplicate. […] The acceptor filter plate was carefully placed on top of the donor plate to form a "sandwich." The sandwich was incubated at 25°C for 5 h, at 300 rpm. UV-vis spectra of the solutions in the blank, reference, acceptor, and donor plates were measured using a Tecan Infinite 200 PRO M Nano Plus microplate reader.

BCRP = biological target: T4, BCRP (Homo sapiens, UniProt Q9UNQ0); test: BCRP efflux substrate assay in MDCK-BCRP; assay type: in vitro ADME; conditions: dog, pH 7.4, MDCK-BCRP
T4 construct: host or cells: MDCK-BCRP (Preadyport)
T4 sequence (Q9UNQ0 1-655): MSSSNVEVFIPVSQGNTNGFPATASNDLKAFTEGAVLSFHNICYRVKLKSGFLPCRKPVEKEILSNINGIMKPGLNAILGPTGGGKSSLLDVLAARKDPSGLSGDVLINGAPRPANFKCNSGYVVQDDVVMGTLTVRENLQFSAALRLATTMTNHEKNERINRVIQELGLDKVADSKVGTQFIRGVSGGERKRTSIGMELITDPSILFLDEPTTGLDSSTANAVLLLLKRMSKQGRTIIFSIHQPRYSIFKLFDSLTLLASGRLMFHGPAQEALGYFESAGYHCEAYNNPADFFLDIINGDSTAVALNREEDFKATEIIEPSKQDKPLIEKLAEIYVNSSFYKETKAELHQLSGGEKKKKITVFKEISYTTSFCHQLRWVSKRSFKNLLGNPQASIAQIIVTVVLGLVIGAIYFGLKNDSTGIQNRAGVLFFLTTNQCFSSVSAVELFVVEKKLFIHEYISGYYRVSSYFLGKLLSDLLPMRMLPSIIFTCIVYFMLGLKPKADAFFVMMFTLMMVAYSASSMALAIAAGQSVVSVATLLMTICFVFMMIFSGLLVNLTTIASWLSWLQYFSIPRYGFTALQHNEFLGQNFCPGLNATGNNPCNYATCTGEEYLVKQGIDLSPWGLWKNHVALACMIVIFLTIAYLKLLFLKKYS
Protocol: MDR1 and BCRP efflux substrate assays were conducted in MDCK-MDR1 and MDCK-BCRP in vitro models (Preadyport™, Solvo Biotech) at Symeres (Nederland). Compound of the invention (donor well concentration of 5µM) were incubated in cell monolayer 24-transwell Preadyport system, using Preadyport recommended pH 7.4 assay buffer (donor and receiver wells). After 60 min of incubation (no shaking), samples are collected and suspended into triple volume of 66% cold acetonitrile. Samples are stored at -20°C until thawed, centrifuged and analyzed by LC-MS. Quinidine was used a positive control for the MDR1 assay, and prazosin was used as a positive control for the BCRP assay. Exatecan was used as a control, known not to be an MDR1 substrate. Residual DMSO content from compounds stock solutions was below 1% (v/v). The assay was performed in duplicate. The quantification of test compounds in donor or receptor compartment is conducted using relative LC/MS peak areas (samples of initial incubation solutions are used as a single point calibrator), without any spiked standard samples. The data is used for estimating apparent permeability (Papp) and calculation of efflux ratio.

For N[C@H]1CC[C@H](Nc2nc(NCc3ccc(-c4ccccn4)cc3)n3ncc(Br)c3n2)CC1 [Compound 2384], the IC50 (CDK13/CycK) was less than 25 nM, the IC50 (CDK9/CycK) was less than 25 nM and the IC50 (CDK12/CycK) was less than 25 nM. It also gave a Papp at 5 h, 50 µM (in vitro) of 84 ×10⁻⁶ cm/s, an efflux ratio at 1 h, 5 µM (BCRP; read-out: Efflux ratio B/A) of 9.24 and a Papp A→B at 1 h, 5 µM (BCRP; 5µM, 60 min, read-out: Papp A (donor) to B (acceptor)) of 5.49 ×10⁻⁶ cm/s. It also gave a Papp B→A at 1 h, 5 µM (BCRP; 5µM, 60 min, read-out: Papp B (acceptor) to A (donor)) of 50.7 ×10⁻⁶ cm/s.
